One data set has as its system HIV-1. Kind of data set: Test A: antiviral activity against HIV-1 isolates and laboratory strain in peripheral blood lymphocytes. It counts as cell-based. To be noted: Human immunodeficiency virus 1, Lymphocyte, read-out: Mean IC50 in PBLs. How it is done: (§1) The antiviral activity of representative compounds of the invention was determined with matched HIV-1 isolates and a laboratory HIV-1 strain as previously described (D. L. Mayers et al., Proc. Natl. Acad. Sci., USA 1995, 92, 215-219; and C. R. Wagner et al., Bioorganic and Medicinal Chemistry Letters, 1995, 5, 1819-1824).

The test system of another data set is PBMCs. The note with it: human. How it is done:
as §1

Data set [1] in a line: Test F: stability in human plasma. It is filed as in vitro ADME. To be noted: 37 C.
In data set [2] the test system is MCF-7 breast cancer cells. Nature of the data set: Test G: activity against MCF-7 breast cancer cells. It counts as cell-based. How it is done: (§2) The activity of representative compounds of formula VII against MCF-7 breast cancer cells and CEM T-cell leukemia cells were determined using a procedure similar to that described by C. R. Wagner, et al. Cancer Research, 1997, 57, 2341-2345.

For data set [3], the system named is CEM T-cell leukemia cells. Nature of the data set: Test G: activity against CEM T-cell leukemia cells. It counts as cell-based. How it is done: as §2
Another data set can be described thus: in vitro. To be noted: cell media.

The structures appear in SMILES notation. Where two headings read alike, the source gives them in different places.

Regarding `Nc1nccc2c1ncn2[C@@H]1O[C@H](CO)[C@@H](O)[C@H]1O` [DZA, 3-deaza adenosine, reference compound], the IC50 (commonly the concentration at which inhibition is half-maximal) in the data set with HIV-1 (HIV-1 isolate A012 post-AZT) was 165 nM; in the data set on HIV-1 (HIV-1 isolate A012 pre-AZT), 144 nM. This molecule also yielded a CC80 in the data set with PBMCs of 1 µM.

For `O=c1[nH]c(=O)n([C@H]2C[C@H](O)[C@@H](CO)O2)cc1F` [FUdR, 5-fluorodeoxyuridine, reference compound], the half-life (usually how long it takes for the measured level to halve) in data set [1] is 5 to 10 min; in “in vitro”, over 2880 min. For the same molecule, the CC50 (as a rule, the concentration at which the toxic effect on the cells reaches its halfway point) in data set [2] (Homo sapiens, MCF7) turned out to be 11 µM; in data set [3] (T-cell) it was 1 nM.

Regarding `COC(=O)[C@H](Cc1c[nH]c2ccccc12)NP(=O)(O)OC[C@H]1O[C@@H](n2cc(F)c(=O)[nH]c2=O)C[C@@H]1O` [Compound 37, 5-fluoro-2′deoxy-5′-uridyl N-((L)-1-carbomethoxy-2-indol-3-ylethyl)phosphoramidate], the “Half-life Cell Media 37 C” value is over 48 h. For the same molecule, it took 0.025 µM to reach half-maximal cytotoxicity in data set [2] (CC50). In data set [3], this molecule registered a CC50 of 320 nM.

Values taken from patent US6475985B1, “Nucleosides with antiviral and anticancer activity” (priority 1998, dated 2002).
